Results: patent US9938261B2, “Heterocyclic compounds and methods of use thereof” (AMBIT BIOSCIENCES CORPORATION, priority 2011, dated 2018)

Legend:
[1] = target: T1, FLT3 (Homo sapiens, UniProt P36888); experiment: Competition binding assay, FLT3 Kd
T1 construct: made in house
T1 sequence (P36888 27-993): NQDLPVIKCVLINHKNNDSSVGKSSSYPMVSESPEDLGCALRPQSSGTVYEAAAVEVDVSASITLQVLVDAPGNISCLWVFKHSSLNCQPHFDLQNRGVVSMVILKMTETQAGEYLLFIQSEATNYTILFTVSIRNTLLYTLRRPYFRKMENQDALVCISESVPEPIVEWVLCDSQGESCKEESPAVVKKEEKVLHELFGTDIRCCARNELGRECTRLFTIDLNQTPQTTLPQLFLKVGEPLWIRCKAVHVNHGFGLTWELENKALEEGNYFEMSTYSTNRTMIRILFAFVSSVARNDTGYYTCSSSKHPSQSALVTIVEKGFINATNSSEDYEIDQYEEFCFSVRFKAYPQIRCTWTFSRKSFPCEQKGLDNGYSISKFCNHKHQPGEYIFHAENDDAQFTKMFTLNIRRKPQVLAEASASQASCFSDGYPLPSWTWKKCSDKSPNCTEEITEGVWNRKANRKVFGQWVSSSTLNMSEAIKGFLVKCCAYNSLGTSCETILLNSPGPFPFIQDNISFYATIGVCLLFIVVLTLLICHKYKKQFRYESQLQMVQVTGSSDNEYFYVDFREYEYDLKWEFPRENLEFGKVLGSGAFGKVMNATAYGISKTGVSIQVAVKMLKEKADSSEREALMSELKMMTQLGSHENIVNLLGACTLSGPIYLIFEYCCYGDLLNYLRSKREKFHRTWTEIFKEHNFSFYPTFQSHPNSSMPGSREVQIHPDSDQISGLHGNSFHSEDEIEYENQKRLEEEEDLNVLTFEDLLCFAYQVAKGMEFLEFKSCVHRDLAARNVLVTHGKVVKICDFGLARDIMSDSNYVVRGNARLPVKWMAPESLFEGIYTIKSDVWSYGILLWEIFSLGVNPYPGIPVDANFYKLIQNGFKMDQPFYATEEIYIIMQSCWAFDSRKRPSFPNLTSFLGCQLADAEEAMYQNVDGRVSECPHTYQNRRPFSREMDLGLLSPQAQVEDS
Procedure: (§1) Competition binding assays used herein were developed, validated and performed as described in Fabian et al., Nature Biotechnology 2005, 23, 329-336. Kinases were produced as fusions to T7 phage (See, Fabian et al. or WO04/015142) or alternatively, the kinases were expressed in HEK-293 cells and subsequently tagged with DNA for PCR detection (See, WO08/005310). For the binding assays, streptavidin-coated magnetic beads were treated with biotinylated affinity ligands for 30 min at room temperature to generate affinity resins. The liganded beads were blocked with excess biotin and washed with blocking buffer (SeaBlock (Pierce), 1% BSA, 0.05% Tween 20, 1 mM DTT) to remove unbound ligand and to reduce non-specific binding. Binding reactions were assembled by combining kinase, liganded affinity beads, and test compounds in 1× binding buffer (20% SeaBlock, 0.17×PBS, 0.05% Tween 20, 6 mM DTT). Test compounds were prepared as 100× stocks in DMSO and diluted into the aqueous environment. Kds were determined using an eleven point threefold serial dilutions. DMSO or control compounds were was added to control assays lacking a test compound. Primary screen assays were performed in polypropylene 384-well plates in a final volume of 20-40 μL, while Kd determinations were performed in polystyrene 96-well plates in a final volume of 135 μL. The assay plates were incubated at room temperature with shaking for 1 hour to allow the binding reactions to reach equilibrium, and the affinity beads were washed extensively with wash buffer (1×PBS, 0.05% Tween 20) to remove unbound protein. The beads were then resuspended in elution buffer (1×PBS, 0.05% Tween […] non-biotinylated affinity ligand) and incubated at room temperature with shaking for 30 min. The kinase concentration in the eluates was measured by quantitative PCR.

[2] = target: T2, KIT (Homo sapiens, UniProt P10721); experiment: Competition binding assay, KIT Kd
T2 construct: made in house
Procedure: as §1

[3] = target: T3, PDGFRβ (Homo sapiens, UniProt P09619); experiment: Competition binding assay, PDGFRβ Kd
T3 construct: made in house
Procedure: as §1

[4] = test system: M-NFS-60 cells; experiment: M-NFS-60 cell proliferation assay (Alamar Blue); format: cell-based, mouse; conditions: Mus musculus; 72 hours incubation, M-CSF 20 ng/mL; read-out: CSF1R M-NFS-60 CTB:IC50
Procedure: The compounds disclosed herein were tested in an M-NFS-60 cell proliferation assay to determine their cellular potency against CSF1R. M-NFS-60s are mouse monocytic cells that depend on the binding of the ligand M-CSF to its receptor, CSF1R, to proliferate. Inhibition of CSF1R kinase activity will cause reduced growth and/or cell death. This assay assesses the potency of compounds as CSF1R inhibitors by measuring the reduction of Alamar Blue reagent by viable cells.
On day one of the experiment, M-NFS-60 cells were maintained in RPMI complete medium (Omega Scientific) plus 10% FBS supplemented with 20 ng/mL of M-CSF (R&D Systems). 96-well TC-treated, flat bottom plates were seeded at 10,000 cell/well at a volume of 100 μL per well. The cells were cultured overnight at 37° C. under 5% CO2.
On day two, compounds were added to the cells at 9 different concentrations, with half-log intervals alongside a control reference compound serving as a positive control. Final DMSO concentration was kept at 0.5% for a final volume of 200 μL. The compounds were allowed to incubate with the cells for 72 hours at 37° C. under 5% CO2.
On day five of the experiment, 40 μl of Alamar Blue reagent was added to each well and allowed to incubate for 3 hours. Alamar Blue fluorescence was read using SoftMax Pro software at 560 nm (excitation) and 590 nm (emission). IC50s were generated as an average of duplicates and represents the concentration of test compound that achieves 50% inhibition of cellular proliferation compared to control.

[5] = target: T4, CSF1R (Homo sapiens, UniProt P07333); experiment: Competition binding assay, CSF1R Kd; set-up: made in house
Procedure: as §1

[6] = target: T4, CSF1R; experiment: HEK293 CSF1R phosphorylation MSD assay; format: cell-based; set-up: expressed in transfected cells; host or cells: HEK293; conditions: 2 h compound, human M-CSF 50 ng/mL for 5 min; read-out: HEK293 pCSF1R M-CSF MSD:IC50
Procedure: The compounds disclosed herein were tested in a CSF1R phosphorylation assay to determine their cellular potency against CSF1R. A HEK293 cell line expressing CSF1R fused to FK506 binding protein (FKBP) as a molecular tag was generated. Inhibition of CSF1R kinase activity will prevent ligand-stimulated autophosphorylation of the CSF1R-FKBP in intact cells. Subsequent cell lysates are assayed in a sandwich ELISA employing the electrochemiluminescent Meso Scale Discovery (MSD) technology for the presence of the phosphorylated (p)CSF1R-FKBP. This assay determines the potency of compounds as CSF1R inhibitors by measuring the reduction in the amount of pCSF1R with increasing doses of compounds added to the cells prior to M-CSF stimulation.
On day one of the experiment, HEK293-CSF1R-FKPB cells, maintained in DMEM, with L-glutamine (Mediatech), 10% FBS, and 100 units/mL Penicillin/Streptomycin, were seeded at 50,000 cell/well in a volume of 100 μL per well in 96-well Cell Bind plates (Costar). The cells were cultured overnight at 37° C. under 5% CO2. To prepare the plates used in the MSD assay, a 330 nM biotin-FK506 (in TBS pH 7.2) solution was added at 30 μL per well to streptavidin-coated 96-well plates (MSD), and incubated overnight at room temperature, shaking at 500 rpm on an orbital shaker.
On day two, compounds diluted in DMSO were added to the cells in duplicate plates at 9 different concentrations with half-log intervals, plus DMSO only control, alongside a reference compound serving as a positive control. Final DMSO concentration was 0.5% in a volume of 200 μL per well. The compounds were allowed to incubate with the cells for 2 h at 37° C. under 5% CO2. At the end of the incubation, human M-CSF (R&D Systems) was added for 5 min to a final concentration of 50 ng/mL to stimulate CSF1R phosphorylation. Cells were lysed for 20 min, and the lysates were applied to the washed, FK506-coated MSD plates, and incubated overnight at 4° C. shaking at 500 rpm.
On day three, the MSD plates were washed, and the captured CSF1R-FKBP was assayed sequentially for phosphorylation using mouse anti-phosphotyrosine antibody (Millipore) and Sulfo-TAG goat anti-mouse IgG antibody (MSD), and detected on a Sector Imager 6000 instrument (MSD).
A single IC50 value for each compound was determined by averaging the IC50s of the duplicates calculated using Igor Pro 6 software, and represents the compound concentration that achieves a 50% inhibition of ligand-induced CSF1R phosphorylation compared to DMSO control.

T4 sequence (P07333 20-972): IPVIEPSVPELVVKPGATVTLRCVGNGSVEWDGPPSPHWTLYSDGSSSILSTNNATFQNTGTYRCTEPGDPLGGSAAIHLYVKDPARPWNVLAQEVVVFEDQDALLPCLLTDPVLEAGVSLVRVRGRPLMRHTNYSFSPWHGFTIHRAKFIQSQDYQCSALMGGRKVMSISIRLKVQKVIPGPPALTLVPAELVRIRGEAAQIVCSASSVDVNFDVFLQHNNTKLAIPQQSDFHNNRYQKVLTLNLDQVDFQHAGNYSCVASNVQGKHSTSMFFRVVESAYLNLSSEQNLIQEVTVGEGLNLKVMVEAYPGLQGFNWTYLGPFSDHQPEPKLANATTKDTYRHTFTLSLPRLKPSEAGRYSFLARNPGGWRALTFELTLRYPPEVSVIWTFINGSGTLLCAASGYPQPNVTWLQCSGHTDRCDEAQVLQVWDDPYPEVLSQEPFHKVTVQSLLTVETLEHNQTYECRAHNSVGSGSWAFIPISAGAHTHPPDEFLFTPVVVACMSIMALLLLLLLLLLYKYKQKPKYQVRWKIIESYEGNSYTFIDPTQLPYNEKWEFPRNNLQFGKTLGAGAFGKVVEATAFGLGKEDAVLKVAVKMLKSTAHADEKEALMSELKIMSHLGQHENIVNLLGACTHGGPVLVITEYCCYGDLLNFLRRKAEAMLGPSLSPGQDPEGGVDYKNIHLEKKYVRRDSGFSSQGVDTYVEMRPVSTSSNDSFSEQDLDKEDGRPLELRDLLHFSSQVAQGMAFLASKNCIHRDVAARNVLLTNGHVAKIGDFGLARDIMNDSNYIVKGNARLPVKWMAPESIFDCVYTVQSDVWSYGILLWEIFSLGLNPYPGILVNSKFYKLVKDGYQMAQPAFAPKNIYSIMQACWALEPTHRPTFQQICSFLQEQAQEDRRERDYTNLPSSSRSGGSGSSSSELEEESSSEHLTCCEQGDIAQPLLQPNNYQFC
T3 sequence (P09619 33-1106): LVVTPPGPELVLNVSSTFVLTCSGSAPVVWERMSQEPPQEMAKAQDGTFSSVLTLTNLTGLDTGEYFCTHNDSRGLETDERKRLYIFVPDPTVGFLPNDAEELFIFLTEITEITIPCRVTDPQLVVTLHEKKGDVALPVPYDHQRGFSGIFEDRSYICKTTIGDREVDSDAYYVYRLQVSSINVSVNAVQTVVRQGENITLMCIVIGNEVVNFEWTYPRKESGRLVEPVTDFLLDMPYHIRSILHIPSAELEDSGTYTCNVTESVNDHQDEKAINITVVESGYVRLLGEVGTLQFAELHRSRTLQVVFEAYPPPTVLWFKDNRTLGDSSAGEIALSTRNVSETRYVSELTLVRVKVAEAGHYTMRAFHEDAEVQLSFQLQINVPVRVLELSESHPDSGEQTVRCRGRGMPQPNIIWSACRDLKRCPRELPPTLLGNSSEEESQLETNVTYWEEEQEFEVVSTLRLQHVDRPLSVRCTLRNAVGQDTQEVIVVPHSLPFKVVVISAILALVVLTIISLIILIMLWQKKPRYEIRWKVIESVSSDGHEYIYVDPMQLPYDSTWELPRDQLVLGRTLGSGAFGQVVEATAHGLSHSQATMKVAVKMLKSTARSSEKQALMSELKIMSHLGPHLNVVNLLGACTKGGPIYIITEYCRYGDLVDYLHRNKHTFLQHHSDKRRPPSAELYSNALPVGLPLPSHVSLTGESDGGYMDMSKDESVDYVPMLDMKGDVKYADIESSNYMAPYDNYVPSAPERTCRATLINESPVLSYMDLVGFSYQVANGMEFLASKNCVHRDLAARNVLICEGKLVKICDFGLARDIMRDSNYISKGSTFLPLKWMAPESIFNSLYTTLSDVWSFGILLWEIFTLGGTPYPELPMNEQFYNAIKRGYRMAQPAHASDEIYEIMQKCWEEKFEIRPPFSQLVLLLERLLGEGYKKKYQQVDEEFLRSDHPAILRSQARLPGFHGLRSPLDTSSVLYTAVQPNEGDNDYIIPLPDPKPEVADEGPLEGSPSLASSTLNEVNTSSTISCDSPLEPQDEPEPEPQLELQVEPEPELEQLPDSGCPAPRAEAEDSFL
T2 sequence (P10721 26-976): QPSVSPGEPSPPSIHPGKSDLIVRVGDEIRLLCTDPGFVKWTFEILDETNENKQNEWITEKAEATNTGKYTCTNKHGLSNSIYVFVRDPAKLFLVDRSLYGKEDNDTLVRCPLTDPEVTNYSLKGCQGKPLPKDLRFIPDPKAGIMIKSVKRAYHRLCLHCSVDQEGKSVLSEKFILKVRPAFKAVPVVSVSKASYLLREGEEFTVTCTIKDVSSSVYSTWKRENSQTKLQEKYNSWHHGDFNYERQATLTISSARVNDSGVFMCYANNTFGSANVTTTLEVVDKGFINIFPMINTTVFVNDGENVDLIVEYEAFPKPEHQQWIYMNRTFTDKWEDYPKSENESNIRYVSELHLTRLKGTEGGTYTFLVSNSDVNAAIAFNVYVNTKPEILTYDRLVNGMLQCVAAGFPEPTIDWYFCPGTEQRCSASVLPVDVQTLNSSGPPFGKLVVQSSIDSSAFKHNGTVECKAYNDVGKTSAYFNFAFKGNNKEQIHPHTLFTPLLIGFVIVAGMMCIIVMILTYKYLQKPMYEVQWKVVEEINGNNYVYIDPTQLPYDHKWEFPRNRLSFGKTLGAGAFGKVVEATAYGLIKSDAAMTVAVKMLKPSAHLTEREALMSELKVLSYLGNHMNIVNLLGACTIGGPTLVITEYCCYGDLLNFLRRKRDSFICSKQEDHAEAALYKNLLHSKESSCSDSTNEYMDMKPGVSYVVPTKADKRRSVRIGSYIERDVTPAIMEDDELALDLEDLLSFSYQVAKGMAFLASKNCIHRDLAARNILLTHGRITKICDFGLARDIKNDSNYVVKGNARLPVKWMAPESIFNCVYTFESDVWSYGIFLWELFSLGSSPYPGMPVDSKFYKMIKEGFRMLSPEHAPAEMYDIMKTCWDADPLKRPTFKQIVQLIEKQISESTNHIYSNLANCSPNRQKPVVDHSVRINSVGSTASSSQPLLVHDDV

COc1cc2ncn(Cc3ccc4nc(N[C@@H]5c6ccccc6C[C@@H]5O)sc4c3)c2cc1OC [Example 10, (1R,2S)-1-((6-((5,6-dimethoxy-1H-benzo[d]imidazol-1-yl)methyl)benzo[d]thiazol-2-yl)amino)-2,3-dihydro-1H-inden-2-ol]
Kd [1]: 1000 to 5000 nM
Kd [2]: 500 to 2000 nM
Kd [3]: 50 to 500 nM
IC50 [4]: 400 to 1500 nM
Kd [5]: 5 to 20 nM
IC50 [6]: 200 to 500 nM

COc1cc2ncn(Cc3ccc4nc(N[C@H]5CCc6ccccc65)sc4c3)c2cc1OC [Example 11, (S)—N-(2,3-dihydro-1H-inden-1-yl)-6-((5,6-dimethoxy-1H-benzo[d]imidazol-1-yl)methyl)benzo[d]thiazol-2-amine]
Kd [1]: 200 to 1000 nM
Kd [2]: 100 to 500 nM
Kd [3]: 50 to 500 nM
IC50 [4]: 400 to 1500 nM
Kd [5]: 5 to 20 nM
IC50 [6]: 200 to 500 nM

COC(c1ccc2nc(N[C@@H]3CCCC[C@H]3O)sc2c1)c1c[nH]c2ncccc12 (stereo partly drawn) [Example 12, (1R,2R)-2-((6-(methoxy(1H-pyrrolo[2,3-b]pyridin-3-yl)methyl)benzo[d]thiazol-2-yl)amino)cyclohexanol]
Kd [1]: 1000 to 5000 nM
Kd [2]: > 2000 nM
Kd [3]: > 2000 nM
IC50 [4]: > 1500 nM
Kd [5]: > 50 nM
IC50 [6]: 200 to 500 nM

COc1cc2ncn(Cc3ccc4nc(NCc5ccccc5)sc4c3)c2cc1OC [Example 13, N-benzyl-6-((5,6-dimethoxy-1H-benzo[d]imidazol-1-yl)methyl)benzo[d]thiazol-2-amine]
Kd [1]: 1000 to 5000 nM
Kd [2]: 100 to 500 nM
Kd [3]: 50 to 500 nM
IC50 [4]: 400 to 1500 nM
Kd [5]: 5 to 20 nM
IC50 [6]: 50 to 200 nM

COc1cc2ncn(Cc3ccc4nc(NCCN5CCOCC5)sc4c3)c2cc1OC [Example 14, 6-((5,6-dimethoxy-1H-benzo[d]imidazol-1-yl)methyl)-N-(2-morpholinoethyl)benzo[d]thiazol-2-amine]
Kd [1]: 1000 to 5000 nM
Kd [2]: > 2000 nM
Kd [3]: 500 to 2000 nM
IC50 [4]: > 1500 nM
Kd [5]: > 50 nM
IC50 [6]: > 500 nM

COc1cc2ncn(Cc3ccc4nc(NC5CCOCC5)sc4c3)c2cc1OC [Example 15, 6-((5,6-dimethoxy-1H-benzo[d]imidazol-1-yl)methyl)-N-(tetrahydro-2H-pyran-4-yl)benzo[d]thiazol-2-amine]
Kd [1]: > 5000 nM
Kd [2]: 500 to 2000 nM
Kd [3]: > 2000 nM
IC50 [4]: > 1500 nM
Kd [5]: 20 to 50 nM
IC50 [6]: 200 to 500 nM

COc1cc2ncn(Cc3ccc4nc(N(C)C5CCCCC5)sc4c3)c2cc1OC [Example 16, N-cyclohexyl-6-((5,6-dimethoxy-1H-benzo[d]imidazol-1-yl)methyl)-N-methylbenzo[d]thiazol-2-amine]
Kd [1]: 200 to 1000 nM
Kd [2]: 100 to 500 nM
Kd [3]: 500 to 2000 nM
IC50 [4]: > 1500 nM
Kd [5]: 20 to 50 nM
IC50 [6]: 200 to 500 nM

O[C@@H]1CCCC[C@H]1Nc1nc2ccc(Cc3c[nH]c4ncccc34)cc2s1 [Example 17, (1R,2R)-2-((6-((1H-pyrrolo[2,3-b]pyridin-3-yl)methyl)benzo[d]thiazol-2-yl)amino)cyclohexanol]
Kd [1]: 200 to 1000 nM
Kd [2]: > 2000 nM
Kd [3]: 50 to 500 nM
IC50 [4]: 400 to 1500 nM
Kd [5]: 5 to 20 nM
IC50 [6]: 200 to 500 nM

COc1cc2ncn(Cc3ccc4nc(NC5CCCCC5)sc4c3)c2cc1OC [Example 18, N-cyclohexyl-6-((5,6-dimethoxy-1H-benzo[d]imidazol-1-yl)methyl)benzo[d]thiazol-2-amine]
Kd [1]: ≤ 200 nM
Kd [2]: ≤ 100 nM
Kd [3]: ≤ 50 nM
IC50 [4]: 50 to 400 nM
Kd [5]: ≤ 5 nM
IC50 [6]: ≤ 50 nM

COc1cc2ncn(Cc3ccc4nc(N[C@@H]5c6ccccc6C[C@H]5O)sc4c3)c2cc1OC [Example 19, (1R,2R)-1-((6-((5,6-dimethoxy-1H-benzo[d]imidazol-1-yl)methyl)benzo[d]thiazol-2-yl)amino)-2,3-dihydro-1H-inden-2-ol]
Kd [1]: 1000 to 5000 nM
Kd [2]: 100 to 500 nM
Kd [3]: 50 to 500 nM
IC50 [4]: 50 to 400 nM
Kd [5]: ≤ 5 nM
IC50 [6]: 50 to 200 nM
